Assay results as given in US20230140216A1, “COMBINATION THERAPY FOR TREATING MPS1” (GAIN THERAPEUTICS SA, priority 2020, published 2023).

Key:
[1] = target: T1, Recombinant human α-L-iduronidase protein (Homo sapiens, UniProt P35475); test: Denaturation prevention assay in neutral pH buffer; format: biochemical; settings: 30 µM compound, pH 7, 37° C.
T1 construct: Ala26-Pro653 with a C-terminal 10_His tag; 10xHis (C); host or cells: HEK293f (stated in b1366 for the UAB protein)
T1 sequence (P35475 26-653): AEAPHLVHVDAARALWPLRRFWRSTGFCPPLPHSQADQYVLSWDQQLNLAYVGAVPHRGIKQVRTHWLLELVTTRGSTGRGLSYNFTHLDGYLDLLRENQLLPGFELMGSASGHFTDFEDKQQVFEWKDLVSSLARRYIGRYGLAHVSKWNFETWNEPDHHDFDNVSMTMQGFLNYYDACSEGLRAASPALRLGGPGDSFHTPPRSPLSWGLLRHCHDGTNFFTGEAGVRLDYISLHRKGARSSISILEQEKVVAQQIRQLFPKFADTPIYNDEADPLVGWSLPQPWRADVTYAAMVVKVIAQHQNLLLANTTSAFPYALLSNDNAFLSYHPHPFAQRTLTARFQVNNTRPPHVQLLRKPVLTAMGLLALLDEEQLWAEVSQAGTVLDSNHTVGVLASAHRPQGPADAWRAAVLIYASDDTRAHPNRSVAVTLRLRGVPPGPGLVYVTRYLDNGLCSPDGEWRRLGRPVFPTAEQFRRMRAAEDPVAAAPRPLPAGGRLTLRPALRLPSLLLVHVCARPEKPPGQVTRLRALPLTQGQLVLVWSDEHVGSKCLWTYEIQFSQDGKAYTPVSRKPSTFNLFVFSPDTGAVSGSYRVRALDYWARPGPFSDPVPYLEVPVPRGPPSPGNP
Experimental: The capacity of Compounds of the Disclosure to stabilize α-L-iduronidase in neutral pH buffer was assessed using the denaturation prevention assay.
Briefly, recombinant human α-L-iduronidase protein (obtained in the Institute of Biotechnology and Biomedicine in the UAB, Bellaterra, Spain) was combined at a final concentration of 1 µM with 5X of SYPRO Orange and 30 µM of the corresponding compound in a final reaction volume of 25 µL in 100 mM Hepes 20 mM MgCl2 pH 7 buffer. Reactions were incubated at 37° C. and SYPRO Orange fluorescence intensity was monitored at the indicated time points using Glomax® Discover Microplate Reader from Promega (Madison, WI, USA).
The compound referred to as Compound A throughout this specification is the compound of Example 8 described above. […] (T=37° C.).

[2] = target: T2, Recombinant human α-L-iduronidase protein IDUA (Homo sapiens, UniProt P35475); test: IDUA inhibition assay; format: biochemical; settings: 4-MU alpha-L-iduronide substrate, pH 3.5, even at high concentrations
T2 construct: Ala26-Pro653 with a C-terminal 10_His tag; 10xHis (C); host or cells: HEK293f
T2 sequence (P35475 26-653): T1 sequence (P35475 26-653)
Experimental: The ability of Compound of the Disclosure to inhibit IDUA was assessed by the assay described below.
Recombinant human α-L-iduronidase protein IDUA PR_06_WT_X (obtained in the Institute of Biotechnology and Biomedicine in the UAB, Bellaterra, Spain) was prepared at the desired concentration in PBS:
Recombinant Human IDUA. HEK293f. Ala26-Pro653 with a C-terminal 10_His tag. Protein buffer: 40 mM sodium acetate, 400 mM NaCl and 20% glycerol, pH=5. Produced by PPP IBB UAB.
The activity assay (3 replicates of each sample) included the following procedures:
In dark 96-well plates compatible with fluorometer: • 1) 25 µL of Recombinant protein or PBS (in blank samples); • 2) 1 µL CO (50X concentrate, made in an intermediate plate) or DMSO for the untreated samples; • 3) 25 µL of 200 µM substrate solution (from a stock solution of 20 mM of substrate in DMSO), 4-Methylumbelliferyl alpha-L-iduronide (Glycosynth, 44076) in 0,4 M sodium formate, pH 3,5, and 0,2% triton; • 4) Mix (shaker); • 5) 37° C. 60 min; • 6) Stop the reaction by adding 200 µL of 0,5 M Glycine / 0,3 M NaOH, pH=10; and • 7) Read Fluorescence at Ex/Em: 340/460 nm.

[3] = test system: Patient-derived fibroblasts; test: Enzyme enhancement activity in combination with rhIDUA in patient-derived fibroblasts; format: cell-based, human
Experimental: Patient-derived fibroblasts were seeded at 4×10^4 cells per well in 12-well cell culture plates in Dulbecco’s Modified Eagle’s Media (DMEM) supplemented with 10% of fetal bovine serum (FBS), 1% penicillin/streptomycin (P/S) (Thermo Fisher Scientific, Waltham, MA, USA) and incubated at 37° C., 5% CO2 overnight for cell attachment. Subsequently, cells were incubated in the absence or presence of the compounds and/or 1.25 nM recombinant human α-L-iduronidase protein (obtained in the Institute of Biotechnology and Biomedicine in the UAB) for 4 days. After incubation, cells were washed with phosphate-buffered saline (“PBS”) and detached using Trypsin-EDTA solution (Sigma Aldrich, St. Louis, MO, USA) to prepare cell pellets. The pellets were stored at -80° C. until activity assays were performed. α-L-iduronidase activity in cell lysates was measured by using 4-methylumbelliferyl alpha-L-iduronide substrate (Glycosynth, Warrington, UK). Briefly, lysates were resuspended in 25 µL of 0.9% NaCl containing 0.01% triton X-100 lysis buffer to promote membrane disruption. The cell suspension was sonicated and centrifuged to remove insoluble materials. Then, lysates were mixed with 25 µL of 200 µM 4-MU- alpha-L-iduronide substrate in 0.4 M sodium formate pH 3.5 0.2% triton X-100 buffer for 60 min at 37° C. The reaction was terminated by adding 200 µL of 0.5 M Glycine/0.3M NaOH buffer pH=10. The liberated 4-MU was measured on a Glomax® Discover Microplate Reader from Promega with excitation at 340 nm and emission at 460 nm. Protein quantification was determined using Pierce BCA Protein Assay Kit (Thermo Fisher Scientific, Waltham, MA, USA). Measurements were interpolated in a 4-MU standard curve and normalized by protein quantity.
Compound A increases uptake of rhIDUA protein and its enzymatic activity under a wide range of conditions (rhIDUA concentration and cell-types). Benefits are particularly evident at longer incubation times (4 days).

## CCN(CC(=O)Nc1c(Cl)cccc1Cl)Cc1nc2ccsc2c(=O)[nH]1 [Compound A]
[1]
  prevention of pH-induced IDUA denaturation: slows down pH-induced denaturation
[2]
  inhibition of IDUA enzymatic activity: does not inhibit human IDUA
[3]; 96h
  activity across a panel of patient-derived fibroblasts: active across a panel of patient-derived fibroblasts
  amount of α-L-iduronidase in fibroblasts: increases the amount of α-L-iduronidase in fibroblasts
[3]; Homo sapiens, Fibroblast, fibroblasts, 96h, co-administration with rhIDUA, read-out: cell-based EC50 (IDUA activity/uptake with rhIDUA)
  EC50: 16 µM
[3]; Hurler-Scheie fibroblasts, 50 µM compound, 96h, vs. single agent
  IDUA cell uptake on co-administration: marked increase of IDUA cell uptake
[3]; fibroblasts
  effect versus incubation time: increases at longer incubation times
